Assay results published in patent US20230339854A1, “Negative Allosteric Modulation of GluN3-Containing N-Methyl-D-Aspartate Receptors” (Emory University, priority 2020, published 2023).
“Also recorded” adds a separate entry of the source. Read-outs that look alike come from different tables or passages of the source.

Experiments:
[1] = target: T1, rat GluN1-4a/GluN3B receptors (Rattus norvegicus, UniProt P35439+Q8VHN2); assay: Two-electrode voltage-clamp recordings of GluN1-4a/GluN3B receptors in the presence of CGP-78608 (Xenopus oocytes); type: cell-based; settings: 0.5 μM CGP-78608
T1 construct: Human GluN3A (NP_597702.2) and rat GluN3B (NP_579842.2) were synthesized and subcloned into SP6 plasmids; expressed in transfected cells; host or cells: Xenopus laevis oocytes, cRNA injection
Source text: (§1) cDNA encoding human wild-type (WT) GluN1-1a (GenBank accession numbers NP_015566, hereafter GluN1) and rat GluN1-1a (NP_058706.1) were synthesized and subcloned into pGEMHE plasmid; some experiments used the rat splice variant GluN1-4a (NP_001257531.1). Human GluN3A (NP_597702.2) and rat GluN3B (NP_579842.2) were synthesized and subcloned into SP6 plasmids. For most experiments, human GluN1 was co-expressed with human GluN3A, except for mutagenesis experiments where rat GluN1 was co-expressed with human GluN3A. Rat GluN1-4a was always expressed with rat GluN3B.
(§2) Defolliculated Xenopus laevis oocytes (stage V-VI) were obtained from Ecocyte BioScience (Austin, Texas), or prepared from commercially available Xenopus ovaries (Xenopus 1, Dexter, MI) as previously described (Hansen, et al., Mol. Pharmacol., 2013). A Drummond Nanoject II (Broomall, PA) was used to inject oocytes with cRNAs encoding GluN1 and GluN3 at a 1:3 ratio in RNase-free water. The cRNA was diluted as needed to give responses with amplitudes ranging between 200-2000 nA (0.2-10 ng total cRNA). Following cRNA injection, the oocytes were stored at 15-19° C. in Barth's solution that contained (in mM) 88 NaCl, 2.4 NaHCO3, 1 KCl, 0.33 Ca(NO3)2, 0.41 CaCl2), 0.82 MgSO4, and 5 Tris-HCl (pH 7.4 with NaOH), supplemented with 1 μg/ml streptomycin (Invitrogen, Carlsbad, CA) and 100 μg/ml gentamicin (Fisher Scientific, Pittsburgh, PA). Recordings were performed 2-5 days following cRNA microinjection at room temperature (23° C.) using a two-electrode voltage-clamp amplifier (OC725, Warner Instrument, Hamilton, CT). The signal was low-pass filtered at 10-20 Hz (4-pole, −3 dB Bessel) and digitized at the Nyquist rate using PCI-6025E or USB-6212 BNC data acquisition boards (National Instruments, Austin, TX) using EasyOocyte (http://www.easyoocyte.io/). Oocytes were placed in a custom-made chamber and continuously perfused (2.5 ml/min) with oocyte recording solution containing (in mM) 90 NaCl, 1 KCl, 10 HEPES, 0.5-1.0 BaCl2, and 0.01 EDTA (pH 7.4 with NaOH). Solutions were applied by gravity, and solution exchange was controlled through a rotary valve (Hamilton, Reno, NV). Recording electrodes were filled with 0.3-3.0 M KCl, and current responses were recorded at a holding potential of −40 mV.
(§3) Response (%)=(100−minimum)/(1+([concentration]/IC50)^nH)+minimum (2) • where nH is the Hill slope, IC50 is the concentration that produces a half-maximal effect, and minimum is the degree of residual inhibition at a saturating concentration of the negative allosteric modulator.
(§4) Selected compounds were also screened in the same assay as EU1180-438 to determine their effect on GluN3B.

[2] = target: T2, rat GluN1-4a/GluN3B receptors (Rattus norvegicus, UniProt Q8VHN2); assay: as above; type: cell-based; settings: @ 10 μM drug; 0.5 μM CGP-78608
T2 construct: Human GluN3A (NP_597702.2) and rat GluN3B (NP_579842.2) were synthesized and subcloned into SP6 plasmids; expressed in transfected cells; host or cells: Xenopus laevis oocytes, cRNA injection
Source text: as §1, §2, §3, §4

[3] = target: T3, human GluN1^FA,TL/GluN3A receptors (Homo sapiens, UniProt Q8TCU5); assay: Two-electrode voltage-clamp recordings of GluN1^FA,TL/GluN3A receptors in Xenopus oocytes; type: cell-based; settings: for Max Inhibition / % Inhibition GluN1^FATL/GluN3A: fitted maximum at saturating test compound; for Max Inhibition: 100 × (1 − Idrug/Icontrol); for remaining activity at 30 µM: read-out: hGluN1^FA,TL/hGluN3A (100 × Idrug/Icontrol at 30 μM drug); for hGluN1^FA,TL/hGluN3A (100 × Idrug/Icontrol): @ 10 μM; for Slope: concentration-response curve; for Slope / minimum: 1000 μM glycine; for minimum: residual response at saturating concentration
T3 construct: Human GluN3A (NP_597702.2) and rat GluN3B (NP_579842.2) were synthesized and subcloned into SP6 plasmids; expressed in transfected cells; host or cells: Xenopus laevis oocytes, cRNA injection (GluN1:GluN3 1:3)
How it was run: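 Human GluN1 with human GluN3A cRNA (1:3) in oocytes, recorded 2-5 days post-injection at 23° C, holding −40 mV, in Ba2+-containing recording solution pH 7.4. Compounds screened at 10 or 30 μM; those inhibiting >20% given concentration-response fits for IC50, Hill slope and residual inhibition.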

[4] = test system: GluN1/GluN2 NMDA receptors (GluN2A, GluN2B, GluN2C, GluN2D); assay: Recombinant GluN1/GluN2 NMDA receptors in Xenopus oocytes (selectivity); type: cell-based, rat
[5] = target: GluN1 (Homo sapiens, UniProt Q05586); settings: read-out: EC50 (glycine binding GluN1); cited from earlier work
[6] = test system: GluN1/GluN3 receptors; settings: hydrochloride; cited from earlier work
[7] = hGluN1^FA,TL/hGluN3A, read-out: IC50 (95% CI) GluN3A
[8] = hGluN1^FA,TL/hGluN3A, read-out: IC50
[9] = pH 7.4, holding potential −40 mV, read-out: EC50, (95% CI) GluN1^FATL/GluN3A
[10] = responses activated by 1000 μM glycine, pH 7.4, read-out: IC50

T1 sequence (Q8VHN2 25-1002, other chains not shown): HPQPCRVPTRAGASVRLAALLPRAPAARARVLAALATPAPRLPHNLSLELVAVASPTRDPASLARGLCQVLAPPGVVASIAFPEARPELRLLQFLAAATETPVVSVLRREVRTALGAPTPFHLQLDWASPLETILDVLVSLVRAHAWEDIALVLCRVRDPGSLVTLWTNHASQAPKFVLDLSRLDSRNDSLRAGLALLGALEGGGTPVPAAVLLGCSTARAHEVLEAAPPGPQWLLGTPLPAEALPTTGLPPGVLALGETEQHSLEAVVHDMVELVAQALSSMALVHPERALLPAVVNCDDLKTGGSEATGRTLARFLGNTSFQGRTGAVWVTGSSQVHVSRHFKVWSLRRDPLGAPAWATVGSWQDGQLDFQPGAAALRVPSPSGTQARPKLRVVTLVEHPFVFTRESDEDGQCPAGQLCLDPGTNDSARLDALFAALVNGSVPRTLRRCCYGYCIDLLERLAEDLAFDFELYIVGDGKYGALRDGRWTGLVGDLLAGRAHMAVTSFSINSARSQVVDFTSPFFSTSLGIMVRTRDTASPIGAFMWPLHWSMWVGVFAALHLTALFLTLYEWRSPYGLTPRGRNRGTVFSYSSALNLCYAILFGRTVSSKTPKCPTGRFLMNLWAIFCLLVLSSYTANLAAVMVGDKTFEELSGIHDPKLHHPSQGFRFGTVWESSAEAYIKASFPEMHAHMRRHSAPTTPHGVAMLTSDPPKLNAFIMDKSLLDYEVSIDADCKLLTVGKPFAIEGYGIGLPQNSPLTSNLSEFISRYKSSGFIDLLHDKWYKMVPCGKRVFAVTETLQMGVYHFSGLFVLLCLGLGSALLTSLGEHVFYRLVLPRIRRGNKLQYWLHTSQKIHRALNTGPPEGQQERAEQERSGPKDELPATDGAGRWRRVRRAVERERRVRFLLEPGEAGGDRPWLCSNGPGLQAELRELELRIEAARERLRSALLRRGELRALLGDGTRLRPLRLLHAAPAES
T2 sequence (Q8VHN2 25-1002, other chains not shown): as above

## COc1ccc(OCC(c2ccccc2)N2Cc3ccccc3C2=O)cc1 (stereo not drawn) [EU1180-487, 2-(2-(4-methoxyphenoxy)-1-phenyl-ethyl)isoindolin-1-one]
[1]
  IC50: 6.49 µM
[2]
  rat GluN1-4a/GluN3B + CGP (100 × Idrug/Icontrol): 42% @ 10 μM drug
[3]
  Max Inhibition: 78%
[3]; [7]
  IC50: 10.8 µM
[4]; 30 μM
  activity toward recombinant GluN1/GluN2 NMDA receptors (GluN2A-D): no detectable activity

## Cc1cccc(OCC(c2ccc(OC(C)C)cc2)N2Cc3cc(Cl)ccc3C2=O)n1 (stereo not drawn) [EU1180-510, 5-chloro-2-(1-(4-isopropoxyphenyl)-2-((6-methylpyridin-2-yl)oxy)ethyl)isoindolin-1-one]
[3]
  remaining activity at 30 µM: 94%
[4]
  activity toward recombinant GluN1/GluN2 NMDA receptors (GluN2A-D): None of them showed any activity

## Cc1cccc(OCC(c2ccc(OC(C)C)cc2)N2Cc3ccc(Cl)cc3C2=O)n1 (stereo not drawn) [EU1180-509, 6-chloro-2-(1-(4-isopropoxyphenyl)-2-((6-methylpyridin-2-yl)oxy)ethyl)isoindolin-1-one]
[3]
  hGluN1^FA,TL/hGluN3A (100 × Idrug/Icontrol): 81%
[4]
  activity toward recombinant GluN1/GluN2 NMDA receptors (GluN2A-D): None of them showed any activity

## COc1ccc(OCC(c2ccc(OC)c(OC)c2)N2Cc3ccccc3C2=O)cc1 (stereo not drawn) [EU1180-494, 2-(1-(3,4-dimethoxyphenyl)-2-(4-methoxyphenoxy)ethyl)isoindolin-1-one]
[3]
  Max Inhibition: 3%
[4]; 30 μM
  activity toward recombinant GluN1/GluN2 NMDA receptors (GluN2A-D): no detectable activity

## NCC(=O)O [glycine]
[5]
  EC50: 0.1 to 1 µM

## COc1ccc(OCC(c2ccc(OC)cc2)N2CCc3ccccc3C2=O)cc1 (stereo not drawn) [EU1180-489, 2-(2-(4-methoxyphenoxy)-1-(4-methoxyphenyl)ethyl)-3,4-dihydroisoquinolin-1(2H)-one]
[1]
  IC50: 3.57 µM
[2]
  rat GluN1-4a/GluN3B + CGP (100 × Idrug/Icontrol): 31% @ 10 μM drug
[3]
  Max Inhibition: 44%
[3]; [7]
  IC50: 10.8 µM
[4]; 30 μM
  activity toward recombinant GluN1/GluN2 NMDA receptors (GluN2A-D): no detectable activity

## C[C@@H](NCc1cc(Br)cc2[nH]c(=O)c(=O)[nH]c12)P(=O)(O)O.Cl [CGP-78608, [(1S)-1-[[(7-bromo-1,2,3,4-tetrahydro-2,3-dioxo-5-quinoxalinyl)methyl]amino]ethyl] phosphonic acid hydrochloride]
[6]
  effect on activation of GluN1/GluN3 receptors: dramatically enhance activation of GluN1/GluN3 receptors; also recorded: strongly enhance GluN1/GluN3A current responses

## COc1ccc(OCC(c2ccc(OC(C)C)cc2)N2Cc3ccccc3C2=O)cc1 (stereo not drawn) [EU1180-481, 2-(1-(4-isopropoxyphenyl)-2-(4-methoxyphenoxy)ethyl)isoindolin-1-one]
[3]
  hGluN1^FA,TL/hGluN3A (100 × Idrug/Icontrol): 57%
  Max Inhibition: 54%
[3]; [8]
  IC50: 3.12 µM
[3]; [7]
  IC50: 3.12 µM
[4]; 30 μM
  activity toward recombinant GluN1/GluN2 NMDA receptors (GluN2A-D): no detectable activity

## Cc1cccc(OCC(c2ccc(OC(C)C)cc2)N2Cc3ccc(C(F)(F)F)cc3C2=O)n1 (stereo not drawn) [EU1180-511]
[3]
  remaining activity at 30 µM: 94%
[4]
  activity toward recombinant GluN1/GluN2 NMDA receptors (GluN2A-D): None of them showed any activity

## COc1ccc(OCC(c2ccc(OC)cc2)N2Cc3ccccc3C2=O)cc1 (single isomer, unassigned; (-)) [(−) EU1180-438, 2-(2-(4-methoxyphenoxy)-1-(4-methoxyphenyl)ethyl)isoindolin-1-one]
[2]
  rat GluN1-4a/GluN3B + CGP (100 × Idrug/Icontrol): 70% @ 10 μM drug
[3]
  Slope: 1.4
  minimum: 16%
[3]; pH 7.4
  % Inhibition GluN1^FATL/GluN3A: 84%^a, (n = 20)
[3]; [9]
  IC50: 13 µM
[3]; [10]
  IC50: 13 µM

## COc1ccc(OCC(c2ccc(OC)cc2)N2Cc3ccccc3C2=O)cc1 (single isomer, unassigned; (+)) [(+) EU1180-438, 2-(2-(4-methoxyphenoxy)-1-(4-methoxyphenyl)ethyl)isoindolin-1-one]
[2]
  rat GluN1-4a/GluN3B + CGP (100 × Idrug/Icontrol): 28% @ 10 μM drug
[3]
  Slope: 1.2
  minimum: 4%
[3]; pH 7.4
  % Inhibition GluN1^FATL/GluN3A: 96%^a, (n = 22)
[3]; [9]
  IC50: 7.1 µM
[3]; [10]
  IC50: 7.1 µM

## CCOc1ccc(OCC(c2ccc(OC(C)C)cc2)N2Cc3ccccc3C2=O)cc1 (stereo not drawn) [EU1180-499, 2-(2-(4-ethoxyphenoxy)-1-(4-isopropoxyphenyl)ethyl)isoindolin-1-one]
[3]
  hGluN1^FA,TL/hGluN3A (100 × Idrug/Icontrol): 67%
[3]; [8]
  IC50: 2.1 µM
[4]
  activity toward recombinant GluN1/GluN2 NMDA receptors (GluN2A-D): None of them showed any activity

## COc1ccc(OCC(c2ccccc2)N2CCc3ccccc3C2=O)cc1 (stereo not drawn) [EU1180-488, 2-(2-(4-methoxyphenoxy)-1-phenylethyl)-3,4-dihydroisoquinolin-1(2H)-one]
[1]
  IC50: 3.43 µM
[2]
  rat GluN1-4a/GluN3B + CGP (100 × Idrug/Icontrol): 38% @ 10 μM drug
[3]
  Max Inhibition: 88%
[3]; [7]
  IC50: 3.29 µM
[4]; 30 μM
  activity toward recombinant GluN1/GluN2 NMDA receptors (GluN2A-D): no detectable activity

## Cc1cccc(OCC(c2ccc(OC(C)C)cc2)N2Cc3ccccc3C2=O)n1 (stereo not drawn) [EU1180-508, 2-(1-(4-isopropoxyphenyl)-2-((6-methylpyridin-2-yl)oxy)ethyl)isoindolin-1-one]
[3]
  hGluN1^FA,TL/hGluN3A (100 × Idrug/Icontrol): 28%
[3]; [8]
  IC50: 3.93 µM
[4]
  activity toward recombinant GluN1/GluN2 NMDA receptors (GluN2A-D): None of them showed any activity

## COc1ccc(C(COc2cccc(C)n2)N2Cc3cc(Cl)ccc3C2=O)cc1 (stereo not drawn) [EU1180-594, 5-Chloro-2-(1-(4-methoxyphenyl)-2-((6-methylpyridin-2-yl)oxy)ethyl)isoindolin-1-one]
[3]
  remaining activity at 30 µM: 73%

## COc1ccc(OCC(c2ccc(OC)cc2)N2Cc3cc(F)ccc3C2=O)cc1 (stereo not drawn) [EU1180-521, 5-Fluoro-2-(2-(4-methoxyphenoxy)-1-(4-methoxyphenyl)ethyl)isoindolin-1-one]
[3]
  remaining activity at 30 µM: 60%

## CCOc1ccc(OCC(c2ccc(OC(C)C)cc2)N2Cc3ccc(Br)cc3C2=O)cc1 (stereo not drawn) [EU1180-592, 6-bromo-2-(2-(4-ethoxyphenoxy)-1-(4-isopropoxyphenyl)ethyl)isoindolin-1-one]
[3]
  remaining activity at 30 µM: 78%
